Consider 19 compounds from ChEMBL document CHEMBL6096649, “Enantiomeric C-6 fluorinated swainsonine derivatives as highly selective and potent inhibitors of α-mannosidase and α-l-rhamnosidase: Design, synthesis and structure-activity relationship study” (Eur J Med Chem, 2025).

Experiment [1] in a line: Inhibition of human liver Alpha-mannosidase.
For experiment [2], the target named is Alpha-glucosidase (Saccharomyces cerevisiae S288c) (UniProt P53341+P38158+P07265). Put plainly: Inhibition of yeast Alpha-glucosidase using p-nitrophenyl glycoside as substrate assessed as p-nitrophenol release at 1000 uM by spectrometric analysis relative to control. The experiment is classed as protein assay.
The next experiment has as its system Oryza sativa. Put plainly: Inhibition of rice Alpha-glucosidase using p-nitrophenyl glycoside as substrate assessed as p-nitrophenol release at 1000 uM by spectrometric analysis relative to control.
The species named for another experiment is Rattus norvegicus. Nature of the experiment: Inhibition of rat intestinal Alpha-glucosidase using p-nitrophenyl glycoside as substrate assessed as p-nitrophenol release at 1000 uM by spectrometric analysis relative to control.
The target in experiment [3] is Alpha glucosidase (Homo sapiens) (UniProt O43451+P10253+P14410+Q2M2H8). Nature of the experiment: Inhibition of human Alpha-glucosidase using p-nitrophenyl glycoside as substrate assessed as p-nitrophenol release at 1000 uM by spectrometric analysis relative to control. The experiment is classed as protein assay.
A further experiment has as its system Prunus dulcis. Put plainly: Inhibition of almond Beta-glucosidase using p-nitrophenyl glycoside as substrate assessed as release of p-nitrophenol at 1000 uM by spectrometric analysis relative to control.
Experiment [4] is filed under the species Bos taurus. Nature of the experiment: Inhibition of bovine liver beta-glucosidase using p-nitrophenyl glycoside as substrate assessed as release of p-nitrophenol at 1000 uM by spectrometric analysis relative to control.
Another experiment is filed under the species Homo sapiens. Nature of the experiment: Inhibition of human lysosome beta-glucosidase using p-nitrophenyl glycoside as substrate assessed as release of p-nitrophenol at 1000 uM by spectrometric analysis relative to control.
For experiment [5], the target named is Alpha-galactosidase (Coffea arabica) (UniProt Q42656). Put plainly: Inhibition of coffee bean alpha-galactosidase using p-nitrophenyl glycoside as substrate assessed as release of p-nitrophenol at 1000 uM by spectrometric analysis relative to control.
The species named for experiment [6] is Bos taurus. Put plainly: Inhibition of bovine liver beta-galactosidase using p-nitrophenyl glycoside as substrate assessed as release of p-nitrophenol at 1000 uM by spectrometric analysis relative to control.
For experiment [7], the target named is T1, Alpha-mannosidase (Canavalia ensiformis) (UniProt C0HJB3).
T1 sequence (whole entry): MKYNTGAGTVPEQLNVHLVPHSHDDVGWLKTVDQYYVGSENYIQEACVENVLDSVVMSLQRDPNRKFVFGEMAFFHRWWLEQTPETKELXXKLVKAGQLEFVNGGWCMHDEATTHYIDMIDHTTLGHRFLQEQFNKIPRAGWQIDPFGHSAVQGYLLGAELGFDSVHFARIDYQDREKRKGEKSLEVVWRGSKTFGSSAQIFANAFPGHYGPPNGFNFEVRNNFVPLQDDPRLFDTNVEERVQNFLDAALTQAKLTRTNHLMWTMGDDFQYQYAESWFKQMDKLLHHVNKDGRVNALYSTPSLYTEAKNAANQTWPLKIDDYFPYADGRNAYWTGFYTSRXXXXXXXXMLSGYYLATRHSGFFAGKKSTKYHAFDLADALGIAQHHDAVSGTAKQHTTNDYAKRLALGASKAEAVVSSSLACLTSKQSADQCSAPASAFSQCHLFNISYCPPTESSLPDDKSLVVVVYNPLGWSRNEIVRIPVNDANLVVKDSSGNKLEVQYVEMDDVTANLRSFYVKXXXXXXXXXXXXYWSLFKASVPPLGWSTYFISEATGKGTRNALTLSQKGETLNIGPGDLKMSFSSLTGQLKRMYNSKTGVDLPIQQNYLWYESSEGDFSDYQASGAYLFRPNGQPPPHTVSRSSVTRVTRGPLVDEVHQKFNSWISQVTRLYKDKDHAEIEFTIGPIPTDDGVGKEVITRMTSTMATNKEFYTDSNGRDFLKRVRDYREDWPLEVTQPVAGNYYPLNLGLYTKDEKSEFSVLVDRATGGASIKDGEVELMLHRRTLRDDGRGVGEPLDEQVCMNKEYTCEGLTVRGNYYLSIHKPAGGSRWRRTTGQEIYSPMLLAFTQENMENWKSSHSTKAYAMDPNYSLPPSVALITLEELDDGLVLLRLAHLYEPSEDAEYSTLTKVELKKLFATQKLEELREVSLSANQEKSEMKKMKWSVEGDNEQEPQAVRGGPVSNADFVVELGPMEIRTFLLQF
Put plainly: Inhibition of jack bean alpha-mannosidase using p-nitrophenyl glycoside as substrate assessed as release of p-nitrophenol at 1000 uM by spectrometric analysis relative to control.

The subject of a further experiment is Helix pomatia. Nature of the experiment: Inhibition of snail beta-mannosidase using p-nitrophenyl glycoside as substrate assessed as release of p-nitrophenol at 1000 uM by spectrometric analysis relative to control.
Another experiment is filed under the species Sus scrofa. Put plainly: Inhibition of porcine kidney Alpha alpha-trehalase using p-nitrophenyl glycoside as substrate assessed as release of p-nitrophenol at 1000 uM by spectrometric analysis relative to control.
The subject of the next experiment is Aspergillus niger. Nature of the experiment: Inhibition of Aspergillus niger amyloglucosidase using p-nitrophenyl glycoside as substrate assessed as release of p-nitrophenol at 1000 uM by spectrometric analysis relative to control.
The next experiment concerns Penicillium decumbens. Put plainly: Inhibition of Penicillium decumbens alpha-L-rhamnosidase using p-nitrophenyl glycoside as substrate assessed as release of p-nitrophenol at 1000 uM by spectrometric analysis relative to control.
A further experiment relates to Escherichia coli. Nature of the experiment: Inhibition of Escherichia coli beta-glucuronidase using p-nitrophenyl glycoside as substrate assessed as release of p-nitrophenol at 1000 uM by spectrometric analysis relative to control.
The species named for experiment [8] is Bos taurus. Put plainly: Inhibition of bovine liver beta-glucuronidase using p-nitrophenyl glycoside as substrate assessed as release of p-nitrophenol at 1000 uM by spectrometric analysis relative to control.

Chain of Alpha-galactosidase (Coffea arabica) (Q42656 16-378 limits assumed): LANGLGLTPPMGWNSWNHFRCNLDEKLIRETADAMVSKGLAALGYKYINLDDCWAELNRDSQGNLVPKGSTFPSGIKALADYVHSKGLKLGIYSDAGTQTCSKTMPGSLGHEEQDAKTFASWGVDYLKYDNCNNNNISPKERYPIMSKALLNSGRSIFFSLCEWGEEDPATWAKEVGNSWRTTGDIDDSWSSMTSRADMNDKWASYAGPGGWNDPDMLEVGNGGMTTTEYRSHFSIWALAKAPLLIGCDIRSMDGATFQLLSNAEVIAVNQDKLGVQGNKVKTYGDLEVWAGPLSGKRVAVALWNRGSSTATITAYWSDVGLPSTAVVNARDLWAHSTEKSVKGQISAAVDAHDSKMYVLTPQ

For `OC[C@H](NC[C@H]1OC[C@H](O)[C@@H]1O)c1ccccc1`, it took 4.2 µM to reach half-maximal inhibition in [1] (IC50).
`O[C@@H]1[C@@H]2[C@H](O)CCCN2C[C@@H]1O`: the inhibition worked out at 3.4% in experiment [2]; 0% with Oryza sativa; 0% in the experiment listed under Rattus norvegicus; 0% in experiment [3]; 1% with Prunus dulcis; 0% in the experiment filed under Bos taurus [4]. In addition, the inhibition in the experiment filed under Homo sapiens was determined as 3.1%; in experiment [5], 0%; in the experiment filed under Bos taurus [6] it was 0%; in experiment [7], 2.8%; in the experiment on Helix pomatia, 11.7%; in the experiment listed under Sus scrofa, 0%. Also, the inhibition came to 11.4% in the experiment on Aspergillus niger, 58% in the experiment on Penicillium decumbens, 0% in the experiment on Escherichia coli and 8.8% in the experiment filed under Bos taurus [8].
Regarding `CC(=O)NCCCC[C@H]1C[C@@H](O)[C@@H]2[C@H](O)[C@H](O)CN2C1`, the IC50 in [1] came out at 51 µM. In other words, the double-digit micromolar range.
Still for that read-out and setting: the same measure for `OC[C@H]1[C@@H](O)[C@@H](O)CN1Cc1ccc(Br)cc1`: 0.09 µM.
For the compound `O[C@@H]1[C@@H]2[C@H](O)CC(F)(F)CN2C[C@@H]1O`, the inhibition came to 0% in experiment [2]; 0% in the experiment with Oryza sativa; 2.7% in the experiment listed under Rattus norvegicus; 2.2% in experiment [3]; 0% in the experiment with Prunus dulcis; 10.2% in the experiment listed under Bos taurus [4]. In addition, the inhibition worked out at 0.7% in the experiment filed under Homo sapiens; 0% in [5]; 0.8% in the experiment listed under Bos taurus [6]; 44.8% in experiment [7]; 0% in the experiment with Helix pomatia; 1.5% in the experiment listed under Sus scrofa. The inhibition in the experiment with Aspergillus niger turned out to be 0.1%; in the experiment with Penicillium decumbens, 63%; in the experiment with Escherichia coli it was 0%; in the experiment filed under Bos taurus [8], 18.8%.
In [1], `O[C@@H]1[C@H](O)C[S+]2CCCS[C@H]12` (some centres not stated) returned an IC50 of 97 µM.
Still for that read-out and setting: the same measure for `Cc1ccc(C(=O)C[C@H]2CC[C@@H](O)[C@@H]3[C@H](O)[C@H](O)CN23)cc1`: 29 µM.
As to `O[C@H]1[C@H]2[C@@H](O)C[C@@H](F)CN2C[C@H]1O`, the inhibition in experiment [2] came to 6.2%; in the experiment with Oryza sativa it was 14%; in the experiment listed under Rattus norvegicus, 10.9%; in experiment [3], 5.3%; with Prunus dulcis, 5.3%; in the experiment listed under Bos taurus [4], 19.9%. In addition, the inhibition in the experiment listed under Homo sapiens amounted to 17.3%; in experiment [5] it was 0%; in the experiment filed under Bos taurus [6], 29.2%; in experiment [7], 14.4%; with Helix pomatia, 3.3%; in the experiment filed under Sus scrofa it was 4.6%. The inhibition is 1.4% with Aspergillus niger, 118% in the experiment on Penicillium decumbens, 4.1% with Escherichia coli and 15.1% in the experiment listed under Bos taurus [8].
Compound `O=C(OC[C@H](NC[C@H]1OC[C@H](O)[C@@H]1O)c1ccccc1)c1ccc(Br)cc1` came in with an IC50 in [1] of 89 µM. That is a double-digit micromolar value.
For the compound `O[C@@H]1[C@@H]2[C@@H](O)CC(F)(F)CN2C[C@@H]1O`, the inhibition was found to be 0% in [2]; 0% in the experiment with Oryza sativa; 0% in the experiment filed under Rattus norvegicus; 0% in experiment [3]; 10.5% with Prunus dulcis; 38.5% in the experiment filed under Bos taurus [4]. The inhibition in the experiment listed under Homo sapiens came out at 0%; in [5], 0%; in experiment [7], 28.2%; in the experiment on Helix pomatia, 0%; in the experiment listed under Sus scrofa it was 28.4%; in the experiment on Aspergillus niger it was 10.9%. The inhibition is 2.2% in the experiment on Penicillium decumbens, 0% with Escherichia coli and 14.1% in the experiment listed under Bos taurus [8].
The compound `OC[C@@H](O)[C@H]1NC[C@@H](O)[C@H]1O` gave a concentration for half-maximal inhibition (IC50) in experiment [1] of 3.9 µM. That is a single-digit micromolar value.
As to `O[C@H]1[C@H]2[C@@H](O)C[C@H](F)CN2C[C@H]1O`, the inhibition in experiment [2] came to 3.4%; in the experiment with Oryza sativa, 15.9%; in the experiment filed under Rattus norvegicus, 0%; in [3] it was 3%; with Prunus dulcis, 3.2%; in the experiment listed under Bos taurus [4], 3.8%. Also, the inhibition in the experiment listed under Homo sapiens was 7.1%; in experiment [5], 0%; in the experiment filed under Bos taurus [6], 0%; in experiment [7], 14.9%; in the experiment with Helix pomatia, 21.7%; with Aspergillus niger, 2.3%. The inhibition was 11.3% in the experiment with Penicillium decumbens, 0% in the experiment with Escherichia coli and 3.1% in the experiment filed under Bos taurus [8].
Turning to `O[C@@H]1[C@@H]2[C@@H](O)C[C@@H](F)CN2C[C@@H]1O`, the inhibition in [2] was determined as 6.2%; in the experiment on Oryza sativa, 27.3%; in the experiment filed under Rattus norvegicus it was 47.3%; in experiment [3] it was 15.6%; in the experiment with Prunus dulcis it was 0%; in the experiment filed under Bos taurus [4] it was 25.6%. Besides, the inhibition in the experiment filed under Homo sapiens was 43.5%; in [5], 0%; in the experiment listed under Bos taurus [6], 21.7%; in experiment [7], 1.6%; with Helix pomatia, 1.7%; in the experiment filed under Sus scrofa, 36%. In addition, the inhibition with Aspergillus niger was 2.3%; in the experiment on Penicillium decumbens it was 5.2%; in the experiment with Escherichia coli, 9.3%.
Regarding `OC[C@H]1[C@@H](O)[C@@H](O)CN1Cc1ccc(I)cc1`, half-maximal inhibition in experiment [1] (IC50) was put at 0.09 µM. This lies in the double-digit nanomolar range.
`OC[C@@H]1[C@@H](O)[C@@H](O)[C@H]2[C@H](O)CCCN21`: in experiment [1], the half-maximal inhibitory concentration (IC50) was 1.2 µM.
Compound `OC[C@H]1[C@@H](O)[C@@H](O)CN1Cc1ccccc1` showed a 50% inhibitory concentration (IC50) in experiment [1] of 0.09 µM. Compared with the last compound, the IC50 is about 13-fold lower.
In the case of `O[C@@H]1[C@@H]2[C@@H](O)C[C@H](F)CN2C[C@@H]1O`, the inhibition in experiment [2] was 4.5%; with Oryza sativa, 0%; in the experiment listed under Rattus norvegicus, 18.3%; in [3], 5.1%; in the experiment with Prunus dulcis, 0%; in the experiment filed under Bos taurus [4], 16%. In addition, the inhibition amounted to 9.6% in the experiment filed under Homo sapiens; 0% in [5]; 11.7% in the experiment listed under Bos taurus [6]; 3.9% in experiment [7]; 2.5% in the experiment on Helix pomatia; 17.7% with Aspergillus niger. For the same compound, the figures for the inhibition with Penicillium decumbens, with Escherichia coli and in the experiment listed under Bos taurus [8] were 0.43%, 9.3% and 12.5%, respectively.
On to `O[C@@H]1[C@@H]2[C@H](O)C[C@H](F)CN2C[C@@H]1O`, for which the inhibition in [2] came out at 18%; in the experiment on Oryza sativa it was 0%; in experiment [3] it was 37.6%; in the experiment with Prunus dulcis, 3.2%; in the experiment filed under Bos taurus [4] it was 38.5%; in experiment [5], 0%. The inhibition in the experiment filed under Bos taurus [6] is 41.7%; in [7], 0%; in the experiment with Helix pomatia, 0%; in the experiment filed under Sus scrofa it was 0.5%; with Aspergillus niger it was 10.9%; with Penicillium decumbens, 52%. In addition, the inhibition in the experiment with Escherichia coli came to 28.9%.
`NC[C@@H]1[C@@H](O)[C@@H](O)[C@H]2[C@H](O)CCCN21`: the affinity in [1] corresponds to a Ki of 0.097 µM.
